From PubChem BioAssay (NCI)
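Five concentrations, 48 hours, 96-well plates. GI50 = concentration required for 50% inhibition of growth. Definition used: TGI = concentration required for complete inhibition of growth.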

Columns and labels:
Assay in all cases: NCI-60 cell line screen, 48 h
BT-549 breast = system: BT-549 breast
K-562 leukemia = system: K-562 leukemia
MALME-3M melanoma = system: MALME-3M melanoma
MCF7 breast = system: MCF7 breast
MDA-MB-231 breast = system: MDA-MB-231 breast
MDA-MB-435 = system: MDA-MB-435
OVCAR-8 ovarian = system: OVCAR-8 ovarian
PC-3 prostate = system: PC-3 prostate
RXF 393 renal = system: RXF 393 renal
SF-268 CNS = system: SF-268 CNS
SK-OV-3 ovarian = system: SK-OV-3 ovarian
UACC-257 melanoma = system: UACC-257 melanoma

| Compound | TGI (BT-549 breast) | GI50 (K-562 leukemia) | TGI (K-562 leukemia) | TGI (MALME-3M melanoma) | GI50 (MCF7 breast) | TGI (MCF7 breast) | TGI (MDA-MB-231 breast) | GI50 (MDA-MB-435) | TGI (MDA-MB-435) | TGI (OVCAR-8 ovarian) | GI50 (PC-3 prostate) | TGI (PC-3 prostate) | TGI (RXF 393 renal) | GI50 (SF-268 CNS) | TGI (SF-268 CNS) | TGI (SK-OV-3 ovarian) | TGI (UACC-257 melanoma) |
| --- | --- | --- | --- | --- | --- | --- | --- | --- | --- | --- | --- | --- | --- | --- | --- | --- | --- |
| CCCCCCCCCC[C@@H](O)[C@H]1CC[C@H]([C@H]2CC[C@H]([C@H](O)CCCCCCCCCC[C@@H]3CC(CC(C)=O)C(=O)O3)O2)O1 (stereo partly specified) | > 50 µM | 0.884 µM | > 50 µM | > 50 µM | 1.85 µM | > 50 µM | > 50 µM | 1.86 µM | > 50 µM | > 50 µM | 5.3 µM | > 50 µM | > 50 µM | 4.95 µM | > 50 µM | > 50 µM | > 50 µM |
| Cc1sc2nc3n(c(=O)c2c1C)N=CN(c1ccccc1)C3 | > 100 µM |  | > 100 µM | > 100 µM |  | > 100 µM | > 100 µM |  | > 100 µM | > 100 µM |  | > 100 µM | > 100 µM |  | > 100 µM | > 100 µM | > 100 µM |
| CCOC(=O)c1cc(=C2\CCN(CC(C)CC)C2=S)/c(=C(/O)CC)[nH]1 (stereo unspecified) | 35.4 µM |  | 37.8 µM | 23.3 µM |  | 61 µM | 31.8 µM |  | 29.6 µM | 56.6 µM |  | 38.8 µM | 44.9 µM |  | 46.3 µM | 48.4 µM | 31.4 µM |
| Cc1cc2c(c(C(=O)NCCC(=O)O)c1)Oc1c(cc(C)cc1C(=O)NCCC(=O)O)S2 | > 100 µM |  | > 100 µM | > 100 µM |  | > 100 µM | > 100 µM |  | > 100 µM | > 100 µM |  | > 100 µM | > 100 µM |  | > 100 µM | > 100 µM | > 100 µM |
| O=C(/C(=C(/Br)I)c1ccccc1)c1ccccc1 | 54.3 µM |  | 39.3 µM | 33.2 µM |  | 94.4 µM | 60.1 µM |  | 82.6 µM | 48.3 µM |  | > 100 µM | 31.6 µM |  | 48.5 µM | > 100 µM | 43.8 µM |
| COC(=O)C1=C(C(=O)OC)C2OC1C1C2C2(C)C(C)=C(C)C1(C)S2=O (stereo unspecified) | 25.1 µM |  | > 100 µM | 20.9 µM |  | > 45.3 µM | > 55.7 µM |  | 19.4 µM | > 100 µM |  | 45.7 µM | 10.6 µM |  | 28.9 µM | > 100 µM | 29.6 µM |
| Cc1c(S(=O)(=O)c2ccccc2)c(N)n(Cc2ccccc2)c1C | > 100 µM |  | > 100 µM | > 100 µM |  | > 100 µM | > 100 µM |  | > 100 µM | > 100 µM |  | > 100 µM | > 100 µM |  | > 100 µM | > 100 µM | > 100 µM |
| CCCCc1c(O)nc(Nc2nc3ccccc3[nH]2)[nH]c1=O | > 100 µM |  | > 100 µM | > 100 µM |  | > 100 µM | > 100 µM |  | > 100 µM | > 100 µM |  | > 100 µM | > 100 µM |  | > 100 µM | > 100 µM | > 100 µM |
| CCOC(=O)c1c(NC(=O)c2ccccc2)sc2c1CCCC2 | > 100 µM |  | > 100 µM | > 100 µM |  | > 100 µM | > 100 µM |  | > 100 µM | > 100 µM |  | > 100 µM | > 100 µM |  | > 100 µM | > 100 µM | > 100 µM |
| Cc1ccc(N=Nc2c3c(c(O)c4ccccc24)CCC(C)(C)O3)cc1 | 58.7 µM |  | > 100 µM | 21.6 µM |  | 27.2 µM | > 100 µM |  | 31.7 µM | > 100 µM |  | > 100 µM | > 100 µM |  | > 100 µM | > 100 µM | 23 µM |
| CC[C@@H]1CC[C@@H]2[C@H](CC[C@]3(C)[C@@H](O)CC[C@@H]23)[C@H]1C(=O)O | > 100 µM |  | > 100 µM | > 100 µM |  | > 100 µM | > 100 µM |  | > 100 µM | > 100 µM |  | > 100 µM | > 100 µM |  | > 100 µM | > 100 µM | > 100 µM |
| Cc1cccc(N2C(=O)C3ON(C(C(N)=O)c4ccccc4)C(c4c5ccccc5c(Cl)c5ccccc45)C3C2=O)c1C (stereo unspecified) | 22.6 µM |  | > 50 µM | 34.7 µM |  | 17.9 µM | 18.1 µM |  | 14.6 µM | 25.1 µM |  | 17 µM | 13.5 µM |  | 27.3 µM | > 50 µM | 18.1 µM |
| O=C(Cc1nc2ccc(C(=O)c3ccccc3)cc2[nH]c1=O)C(=O)Nc1ccc(Br)cc1 | > 100 µM |  | > 100 µM | > 100 µM |  | > 100 µM | > 100 µM |  | > 100 µM | > 100 µM |  | > 100 µM | > 100 µM |  | > 100 µM | > 100 µM | > 100 µM |
| Nc1nc(Cl)cc(NCC2(CO)CC(CCc3ccccc3)C2)n1 (stereo unspecified) | > 100 µM |  | > 100 µM | > 100 µM |  | > 100 µM | > 100 µM |  | > 100 µM | > 100 µM |  | > 100 µM | > 100 µM |  | > 100 µM | > 100 µM | > 100 µM |
| O=C1CC(O)c2c1csc2Br (stereo unspecified) | 52.9 µM |  | 76.7 µM | 82.4 µM |  | 45.7 µM | 55 µM |  | 41.1 µM | 62.4 µM |  | > 100 µM | 38.1 µM |  | 88.6 µM | > 100 µM | 31.4 µM |
| COC(=O)C1(Cc2ccccc2)Cc2cc3c(cc2C1=O)CCC3 (stereo unspecified) | > 100 µM |  | 81.8 µM | 56.6 µM |  | 42.9 µM | > 100 µM |  | 36.9 µM | > 100 µM |  | > 100 µM | > 100 µM |  | > 100 µM | > 100 µM | > 100 µM |
| O=c1c2ccccc2[nH]c(=S)n1-c1ccc(N=Nc2cccc3c(O)cccc23)cc1 | > 100 µM |  | > 100 µM | > 100 µM |  | 35.2 µM | > 100 µM |  | 68.9 µM | > 100 µM |  | > 100 µM | > 100 µM |  | > 100 µM | > 100 µM | > 100 µM |
| c1cc(-c2cnc(-c3ccc4c(c3)CCCO4)o2)ccn1 | 29.1 µM |  | 22.8 µM | 30.6 µM |  | 28.7 µM | 41 µM |  | 28.3 µM | 27.6 µM |  | 24.4 µM | 43.7 µM |  | 33.2 µM | 57.3 µM | 28.8 µM |
| CC(=O)C(CN1CCCCC1)C(c1ccccc1)c1c(O)c2ccccc2oc1=O (stereo unspecified) | > 100 µM |  | > 100 µM | > 100 µM |  | > 100 µM | > 100 µM |  | > 100 µM | > 100 µM |  | > 100 µM | > 100 µM |  | > 100 µM | > 100 µM | > 100 µM |
| Cc1ccc2c(c1C)CC1(Cc3c(ccc4c3CCC4)C1=O)C2=O (stereo unspecified) | > 100 µM |  | > 100 µM | > 100 µM |  | > 100 µM | > 100 µM |  | > 100 µM | > 100 µM |  | > 100 µM | > 100 µM |  | > 100 µM | > 100 µM | > 100 µM |
| CCOP(=O)(OCC)[C@H](O)c1ccsc1 | > 100 µM |  | > 100 µM | > 100 µM |  | > 100 µM | > 100 µM |  | > 100 µM | > 100 µM |  | > 100 µM | > 100 µM |  | > 100 µM | > 100 µM | > 100 µM |
| O=c1c2c3ccccc3[nH]c2c2cccc3c2n1CCC3 | 91 µM |  | > 100 µM | 71.1 µM |  | > 100 µM | > 100 µM |  | > 100 µM | > 100 µM |  | > 100 µM | > 100 µM |  | > 100 µM | > 100 µM | > 100 µM |
| CC(C)(C)OC(=O)NCCCCC(NC(=O)OCc1ccccc1)C(N)=O (stereo unspecified) | > 100 µM |  | > 100 µM | > 100 µM |  | > 100 µM | > 100 µM |  | > 100 µM | > 100 µM |  | > 100 µM | > 100 µM |  | > 100 µM | > 100 µM | > 100 µM |
| CC1(C)CC2(C)CC1CC2O (stereo unspecified) | > 100 µM |  | > 100 µM | > 100 µM |  | > 100 µM | > 100 µM |  | > 100 µM | > 100 µM |  | > 100 µM | > 100 µM |  | > 100 µM | > 100 µM | > 100 µM |
| COc1ncc(C=C(C#N)C#N)c(OC)n1 | > 100 µM |  | > 100 µM | > 100 µM |  | > 100 µM | > 100 µM |  | 78.8 µM | 62 µM |  | > 100 µM | > 100 µM |  | > 100 µM | > 100 µM | 57.8 µM |
| O=C1CC(c2ccco2)C2(C(=O)NC(=O)NC2=O)C(c2ccco2)C1 (stereo unspecified) | > 75 µM |  | > 75 µM | > 75 µM |  | > 75 µM | > 75 µM |  | > 75 µM | > 75 µM |  | > 75 µM | > 75 µM |  | > 75 µM | > 75 µM | > 75 µM |
| Oc1ccccc1C(c1cc2c(cc1O)OCO2)N1CCOCC1 (stereo unspecified) | 30.9 µM |  | 23.5 µM | 32.2 µM |  | 38.3 µM | 36.1 µM |  | 34.9 µM | 44.7 µM |  | 31.6 µM | 30.8 µM |  | 36.9 µM | > 100 µM | 36.1 µM |
| COc1ccc(Nc2c(C#N)c3n(c4ccccc24)c2ccccc2[n+]3C)cc1OC | 42.6 µM |  | > 20 µM | 15.8 µM |  | 21.7 µM | 8.25 µM |  | 14.8 µM | 18.5 µM |  | 8.38 µM | 9.46 µM |  | 8.25 µM | 23.3 µM | 17 µM |
